Source: ChEMBL document CHEMBL3784939, “Study on the synthesis and biological activities of α-substituted arylacetates derivatives” (Bioorg Med Chem Lett, 2016)
Converted amounts (≈) assume the structure as drawn. The source made the active and inactive calls. The calls are words filed in the database; no cut-off is given here.

Assays:
[1] = Inhibition of alpha glucosidase (unknown origin) at 100 uM preincubated for 15 mins followed by p-nitrophenyl-alpha-D-glucopyranoside addition measured after 30 mins by spectrophotometric analysis; settings: Homo sapiens
[2] = Inhibition of alpha glucosidase (unknown origin) preincubated for 15 mins followed by p-nitrophenyl-alpha-D-glucopyranoside addition measured after 30 mins by spectrophotometric analysis; parameters: species or system Homo sapiens
[3] = Cytotoxicity against human HCT116 cells after 72 hrs by MTT assay; assay type: functional, cell-based; settings: HCT-116, 72 h
[4] = Cytotoxicity against human BCG823 cells after 72 hrs by MTT assay; assay type: functional, cell-based; settings: BCG823, 72 h
NCI-H1650 = assay: Cytotoxicity against human NCI-H1650 cells after 72 hrs by MTT assay; assay type: functional, cell-based; settings: NCI-H1650, 72 h
Rattus norvegicus [5] = assay: Hypoglycemic activity in diabetic rat model assessed as decrease in blood glucose level at 20 mg/kg, ig administered for 12 days measured on third day of compound dosing by glucometer relative to control; assay type: functional; settings: po, 288 h
Rattus norvegicus [6] = assay: Hypoglycemic activity in diabetic rat model assessed as decrease in blood glucose level at 20 mg/kg, ig administered for 12 days measured on sixth day of compound dosing by glucometer relative to control; assay type: functional; settings: po, 288 h
Rattus norvegicus [7] = assay: Hypoglycemic activity in diabetic rat model assessed as decrease in blood glucose level at 20 mg/kg, ig administered for 12 days measured on ninth day of compound dosing by glucometer relative to control; assay type: functional; settings: po, 288 h
Rattus norvegicus [8] = assay: Hypoglycemic activity in diabetic rat model assessed as decrease in blood glucose level at 20 mg/kg, ig administered for 12 days measured on twelfth day by glucometer relative to control; assay type: functional; settings: po, 288 h
[9] = Noncompetitive inhibition of alpha glucosidase (unknown origin) preincubated for 15 mins followed by p-nitrophenyl-alpha-D-glucopyranoside addition measured after 30 mins by Lineweaver-Burk plot analysis; parameters: species or system Homo sapiens
Rattus norvegicus [10] = assay: Hypoglycemic activity in diabetic rat model assessed as decrease in blood glucose level at 360 mg/kg, ig administered for 12 days measured on third day of compound dosing by glucometer relative to control; assay type: functional; settings: po, 288 h
Rattus norvegicus [11] = assay: Hypoglycemic activity in diabetic rat model assessed as decrease in blood glucose level at 360 mg/kg, ig administered for 12 days measured on sixth day of compound dosing by glucometer relative to control; assay type: functional; settings: po, 288 h
Rattus norvegicus [12] = assay: Hypoglycemic activity in diabetic rat model assessed as decrease in blood glucose level at 360 mg/kg, ig administered for 12 days measured on ninth day of compound dosing by glucometer relative to control; assay type: functional; settings: po, 288 h
Rattus norvegicus [13] = assay: Hypoglycemic activity in diabetic rat model assessed as decrease in blood glucose level at 360 mg/kg, ig administered for 12 days measured on twelfth day by glucometer relative to control; assay type: functional; settings: po, 288 h
Rattus norvegicus [14] = assay: Hypoglycemic activity in diabetic rat model assessed as blood glucose level at 360 mg/kg, ig administered for 12 days measured on day 9 of compound dosing by glucometer (reference value: 21.95 +/- 2.83 mmol/l); assay type: functional
Rattus norvegicus [15] = assay: Hypoglycemic activity in diabetic rat model assessed as blood glucose level at 360 mg/kg, ig administered for 12 days measured on day 12 by glucometer (reference value: 21.95 +/- 2.83 mmol/l); assay type: functional
Rattus norvegicus [16] = assay: Hypoglycemic activity in diabetic rat model assessed as blood glucose level at 360 mg/kg, ig administered for 12 days measured on day 6 of compound dosing by glucometer (reference value: 21.95 +/- 2.83 mmol/l); assay type: functional
Rattus norvegicus [17] = assay: Hypoglycemic activity in diabetic rat model assessed as decrease in blood glucose level at 100 mg/kg, ig administered for 12 days measured on third day of compound dosing by glucometer relative to control; assay type: functional; settings: po, 288 h
Rattus norvegicus [18] = assay: Hypoglycemic activity in diabetic rat model assessed as decrease in blood glucose level at 100 mg/kg, ig administered for 12 days measured on sixth day of compound dosing by glucometer relative to control; assay type: functional; settings: po, 288 h
Rattus norvegicus [19] = assay: Hypoglycemic activity in diabetic rat model assessed as decrease in blood glucose level at 100 mg/kg, ig administered for 12 days measured on ninth day of compound dosing by glucometer relative to control; assay type: functional; settings: po, 288 h
Rattus norvegicus [20] = assay: Hypoglycemic activity in diabetic rat model assessed as decrease in blood glucose level at 100 mg/kg, ig administered for 12 days measured on twelfth day by glucometer relative to control; assay type: functional; settings: po, 288 h

| Compound | inhibition [1] | IC50 [2] | IC50 [3] | IC50 [4] | IC50 (NCI-H1650) | other results |
| --- | --- | --- | --- | --- | --- | --- |
| CCOC(=O)C(CO)c1ccc(F)cc1 (configuration not stated) | 19.2% | > 200 µM | > 0.01 µg/mL | > 0.01 µg/mL | > 0.01 µg/mL | – |
| CCC1=C(C)CN(C(=O)NCCc2ccc(S(=O)(=O)NC(=O)N[C@H]3CC[C@H](C)CC3)cc2)C1=O [GLIMEPIRIDE] | – | – | – | – | – | inhibition in vivo at 20 mg/kg (Rattus norvegicus [5]): 7.86%; inhibition in vivo at 20 mg/kg (Rattus norvegicus [6]): 7.86%; inhibition in vivo at 20 mg/kg (Rattus norvegicus [7]): 7.86%; inhibition in vivo at 20 mg/kg (Rattus norvegicus [8]): 7.86% |
| CCOC(=O)C(/C=N/NC(N)=S)c1ccc(F)cc1 (configuration not stated) | 65.3% | 46.8 µM | 0.00191 µg/mL (≈ 0.00674 µM) | 0.00727 µg/mL (≈ 0.0257 µM) | 0.00198 µg/mL (≈ 0.00699 µM) | Ki [9]: 65.4 µM; inhibition in vivo at 360 mg/kg (Rattus norvegicus [10]): 10.3%; inhibition in vivo at 360 mg/kg (Rattus norvegicus [11]): 7.86%; inhibition in vivo at 360 mg/kg (Rattus norvegicus [12]): 16.9%; inhibition in vivo at 360 mg/kg (Rattus norvegicus [13]): 18.1% |
| OC[C@H]1NC[C@H](O)[C@@H](O)[C@@H]1O [DUVOGLUSTAT] | 52.5% | 109 µM | – | – | – | – |
| CCOC(=O)C(C=O)c1ccc(C(F)(F)F)cc1 (configuration not stated) | inactive | – | > 0.01 µg/mL | > 0.01 µg/mL | > 0.01 µg/mL | – |
| COC(=O)C(/C=N/NC(N)=S)c1ccc(C)cc1 (configuration not stated) | 20.8% | 190 µM | > 0.01 µg/mL | 0.00522 µg/mL (≈ 0.0197 µM) | 0.00534 µg/mL (≈ 0.0201 µM) | – |
| COC(=O)C(C=O)c1ccc(C)cc1 (configuration not stated) | 29.3% | 185 µM | > 0.01 µg/mL | > 0.01 µg/mL | > 0.01 µg/mL | – |
| CCOC(=O)C(/C=N/NC(N)=S)c1ccc(C(F)(F)F)cc1 (configuration not stated) | 34% | 137 µM | 0.00367 µg/mL (≈ 0.011 µM) | > 0.01 µg/mL | 0.00805 µg/mL (≈ 0.0241 µM) | – |
| CCOC(=O)C(CO)c1ccc(C(F)(F)F)cc1 (configuration not stated) | inactive | – | > 0.01 µg/mL | > 0.01 µg/mL | > 0.01 µg/mL | – |
| CCOC(=O)C(/C=N/OC)c1ccc(C(F)(F)F)cc1 (configuration not stated) | inactive | – | > 0.01 µg/mL | > 0.01 µg/mL | > 0.01 µg/mL | – |
| CN(C)C(=N)NC(=N)N [METFORMIN] | – | – | – | – | – | inhibition in vivo at 100 mg/kg (Rattus norvegicus [17]): 7.86%; inhibition in vivo at 100 mg/kg (Rattus norvegicus [18]): 7.86%; inhibition in vivo at 100 mg/kg (Rattus norvegicus [19]): 7.86%; inhibition in vivo at 100 mg/kg (Rattus norvegicus [20]): 7.86% |
| CCOC(=O)C(C=O)c1ccc(F)cc1 (configuration not stated) | 20.4% | 183 µM | > 0.01 µg/mL | > 0.01 µg/mL | > 0.01 µg/mL | – |

The next lines start with results.

| inhibition [1] | IC50 [2] | Compound | IC50 [3] | IC50 [4] | IC50 (NCI-H1650) | other results |
| --- | --- | --- | --- | --- | --- | --- |
| 14.4% | > 200 µM | COC(=O)C(/C=N/NC(N)=S)c1ccc(OC)cc1 (configuration not stated) | 0.0088 µg/mL (≈ 0.0313 µM) | > 0.01 µg/mL | 0.0025 µg/mL (≈ 0.00889 µM) | – |
| 15.3% | > 200 µM | COC(=O)C(C=O)c1ccccc1 (configuration not stated) | > 0.01 µg/mL | > 0.01 µg/mL | > 0.01 µg/mL | – |
| inactive | – | CCOC(=O)C(/C=N/OC)c1ccc(F)cc1 (configuration not stated) | > 0.01 µg/mL | > 0.01 µg/mL | > 0.01 µg/mL | – |
| 12.9% | > 200 µM | COC(=O)C(COC(=O)c1ccccc1)c1ccccc1 (configuration not stated) | > 0.01 µg/mL | > 0.01 µg/mL | > 0.01 µg/mL | – |
| 29.9% | 191 µM | CCOC(=O)C(COC(=O)/C=C/c1ccc(OC)c(OC)c1)c1ccc(C(F)(F)F)cc1 (configuration not stated) | > 0.01 µg/mL | > 0.01 µg/mL | > 0.01 µg/mL | – |
| 11.1% | > 200 µM | COC(=O)C(COC(=O)/C=C/c1ccc(OC)c(OC)c1)c1ccccc1 (configuration not stated) | > 0.01 µg/mL | > 0.01 µg/mL | > 0.01 µg/mL | inhibition in vivo at 360 mg/kg (Rattus norvegicus [10]): 7.86%; inhibition in vivo at 360 mg/kg (Rattus norvegicus [11]): 7.86%; Activity (Rattus norvegicus [14]): 20.44 mmol/L; Activity (Rattus norvegicus [15]): 20.76 mmol/L |
| 16.8% | > 200 µM | CCOC(=O)C(COC(=O)c1ccccc1)c1ccc(C(F)(F)F)cc1 (configuration not stated) | > 0.01 µg/mL | > 0.01 µg/mL | > 0.01 µg/mL | – |
| 28.7% | 186 µM | COC(=O)C(CO)c1ccccc1 (configuration not stated) | > 0.01 µg/mL | > 0.01 µg/mL | > 0.01 µg/mL | – |
| 47.8% | 83.8 µM | CCOC(=O)C(COC(=O)/C=C/c1ccc(OC)c(OC)c1)c1ccc(F)cc1 (configuration not stated) | > 0.01 µg/mL | > 0.01 µg/mL | > 0.01 µg/mL | inhibition in vivo at 360 mg/kg (Rattus norvegicus [10]): 7.86%; inhibition in vivo at 360 mg/kg (Rattus norvegicus [11]): 7.86%; inhibition in vivo at 360 mg/kg (Rattus norvegicus [12]): 7.86%; inhibition in vivo at 360 mg/kg (Rattus norvegicus [13]): 19% |
| 19.8% | > 200 µM | COC(=O)C(/C=N/NC(N)=S)c1ccccc1 (configuration not stated) | 0.00321 µg/mL (≈ 0.0128 µM) | 0.00818 µg/mL (≈ 0.0325 µM) | 0.00325 µg/mL (≈ 0.0129 µM) | – |
| inactive | – | COC(=O)C(CO)c1ccc(OC)cc1 (configuration not stated) | > 0.01 µg/mL | > 0.01 µg/mL | > 0.01 µg/mL | – |
| 18.4% | > 200 µM | COC(=O)C(C=O)c1ccc(OC)cc1 (configuration not stated) | > 0.01 µg/mL | > 0.01 µg/mL | > 0.01 µg/mL | – |
| 14.6% | > 200 µM | COC(=O)C(CO)c1ccc(C)cc1 (configuration not stated) | > 0.01 µg/mL | > 0.01 µg/mL | > 0.01 µg/mL | inhibition in vivo at 360 mg/kg (Rattus norvegicus [10]): 7.86%; Activity (Rattus norvegicus [16]): 21.66 mmol/L; Activity (Rattus norvegicus [14]): 21.76 mmol/L; Activity (Rattus norvegicus [15]): 21.4 mmol/L |
| 13.7% | > 200 µM | COC(=O)C(COC(=O)c1ccccc1OC(C)=O)c1ccccc1 (configuration not stated) | > 0.01 µg/mL | > 0.01 µg/mL | > 0.01 µg/mL | – |
| 27.3% | > 200 µM | CCOC(=O)C(COC(=O)c1ccccc1)c1ccc(F)cc1 (configuration not stated) | > 0.01 µg/mL | > 0.01 µg/mL | > 0.01 µg/mL | – |
| 15.8% | > 200 µM | CCOC(=O)C(COC(=O)c1ccccc1OC(C)=O)c1ccc(F)cc1 (configuration not stated) | > 0.01 µg/mL | > 0.01 µg/mL | > 0.01 µg/mL | – |
| 14.1% | > 200 µM | CCOC(=O)C(COC(=O)c1ccccc1OC(C)=O)c1ccc(C(F)(F)F)cc1 (configuration not stated) | > 0.01 µg/mL | > 0.01 µg/mL | > 0.01 µg/mL | – |
